In patent US4618598A, “Method of regulating hormone function or release” (Duke University, priority 1982, dated 1986):

Columns and labels:
pituitary cell cultures [1] = settings: for effect on conjugate-stimulated LH release: Example 4, 2 mM EGTA (1.25 mM extracellular calcium), five micromolar Pimozide; for effect on LH release stimulated by dimer plus antibody: Example 7, 5 μM Pimozide or 2 mM EGTA, all titers, 1.5×10^-11 M dimer
Method: (§1) Luteinizing hormone release from pituitary cell cultures is dependent upon the binding of the gonadotropin releasing hormone to its specific cell surface receptor. […] In FIG. 2 the antagonist activity of GnRH-Ant was measured in a cell culture bioassay. Two day pituitary cell cultures were incubated with 10^-8 M, 10^-9 M, or no GnRH at the indicated concentration of antagonist. After the 5 h incubation period, the medium was assayed for LH by RIA using rat LH antisera (LHS-4), highly purified rat LH for labeling (LH I-4), and rat LH standard (LH-RP-1) which were made available by a grant from the NIAMDD Hormone Distribution Office (prepared by Dr. A. Parlow, Torrance, CA.). The assay was performed as described below, except that second antibody was used to separate the bound and free [^ 125 -I]-LH.
Cell cultures were prepared, by collagenase-hyaluronidase dispersion of pituitaries from 25-day-old female weanling rats. The cultures were then incubated for 2 days at 37 C. in culture plates. […] After the culture period, the cells were washed free of debris and sera with medium 199 containing 0.3% bovine serum albumin (Cohn fraction V; 199/BSA) and incubated with the indicated compounds. Medium 199 normally contains 1 mM Ca^2+. Cells were incubated in 1.0 ml medium for 3 h. After the incubation period, the supernatant fraction was removed from the cells (attached to the culture dish) with a Pasteur pipette and assayed for LH by RIA employing rat LH antisera (LHS-5), highly purified rat LH for labeling (LH-I-6), and rat LH standard (LH-RP-1), all of which were made available by the NIAMMD Hormone Distribution Office and were prepared by Dr. A. Parlow (Torrance, CA). The assay was performed, using immobile protein A to separate the bound and free [^125 I]LH. […] LH release was normalized by DNA determination in order to correct for slight differences in cell numbers in different assay wells.
Rabbit anti-D-Lys^6 -GnRH (antiserum No. 5111 prepared by immunization with D-Lys^6 coupled to bovine serum albumin (BSA) with glutaraldehyde) was added without additional purification in an amount sufficient to bind 8-10% of the dimer. The antibody was added in a final volume of 50 μl (with Medium 199 containing 0.3% BSA and 2 mg NaN3). The reaction ws allowed to proceed 10 h at room temperature and then 2 days at 10° C. Immediately before the cell bioassay, the solution was applied to a 12 ml calibrated G-75 column (10×260 mm) equilibrated in 199/BSA. Twenty drop fractions (about 300 μl) were collected and brought to 1.0 ml with 199/BSA. […] Where monovalent antibody is specified, the reduced pepsin fragment of antibody (No. 5111) was substituted for intact antibody in the conjugation described above. In this case ammonium sulfate fractionated IgG was dissolved in 50 mM acetate buffer, pH 4.5 and digested with pepsin (Worthington Biochemical Corp.) at an enzyme:substrate ratio of 1:100 for 50 min at […]. Digestion was stopped by neutralization with 1M Tris-HCL, pH 8.0 and 0.1N NaOH. Precipitated material was removed by centrifugation and 2-mercaptoethanol added to the supernatant at a final concentration of 0.75 mM. The solution was maintained at room temperature for 1 h, then cooled in ice cold water.

[2] = biological target: T1, gonadotropin releasing hormone receptor (Rattus norvegicus, UniProt P30969); experiment: Competitive binding against [125-I] Buserelin on pituitary plasma membrane fraction
T1 construct: gonadotropin releasing hormone sites on a plasma membrane fraction from the rat pituitary; from tissue; host or cells: rat pituitary plasma membrane fraction
T1 sequence (P30969 1-327): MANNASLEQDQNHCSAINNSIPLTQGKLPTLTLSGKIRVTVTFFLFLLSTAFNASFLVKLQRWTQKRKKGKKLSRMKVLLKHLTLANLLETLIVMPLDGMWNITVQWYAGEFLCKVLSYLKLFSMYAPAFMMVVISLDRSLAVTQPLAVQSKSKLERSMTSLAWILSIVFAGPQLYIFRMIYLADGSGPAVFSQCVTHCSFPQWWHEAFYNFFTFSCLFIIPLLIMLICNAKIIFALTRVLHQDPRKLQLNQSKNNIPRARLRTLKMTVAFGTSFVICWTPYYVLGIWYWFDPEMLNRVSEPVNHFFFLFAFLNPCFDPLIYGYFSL
Source text: [125-I]-Tyr^5 -D-ser(tert-butyl)^6 -desGly^10 -Pro^9 ethylamid-GnRH ([125-I] Buserelin, Hoechst Pharmaceuticals) binds to the gonadotropin releasing hormone receptor sites on the plasma membrane. The ability to compete with the iodine labelled Buserelin indicates the relative affinity for the receptor. […] The data are expressed in terms of equivalents of releasing hormone analogue showing the radioligand bound in the presence of the indicated analogue concentration (B) compared to that bound in the absence of added analog (Bo).
The binding assay was conducted in polypropylene microfuge tubes which were precoated overnight with 1% BSA. The assay contained approximately 20,000 cpm of ^125 I-labeled Buserelin and 30 μg of membrane protein, in the presence or absence of 10^-5 M GnRH. In some competition experiments, the amount of added GnRH was altered as indicated. To determine the specificity of binding, des-pGlu^1 -GnRH (Bachem, Torrance, Calif.), D-Ala^6 -GnRH (Peninsula Laboratories, Inc., San Carlos, Calif.), D-Phe^2 -D-Ala^6 -GnRH (Wyeth Laboratories, Philadelphia, Pa.) TRH (Peninsula Laboratories), arg^8 -vasopressin (Calbiochem, San Diego, Calif.), or somatostatin (Beckman Instruments, Fullerton, Calif.) were added at the indicated concentrations. The final assay volume was 500 μl adjusted with 10 mM Tris-0.1% BSA. Following a 2-hr incubation on ice, bound and free hormone were separated by centrifugation. (Eppendorf microfuge, 12,800×g, 5 min) through 100 μl of 10% (w/v) sucrose. The tips of the tubes were cut off and radioactivity was determined by γ-spectroscopy. […] For some kinetic studies, bound hormone and free hormone were separated by the method of rapid filtration. Incubations were performed in triplicate. Specific binding was determined by subtracting nonspecific binding (in the presence of excess unlabeled GnRH) from total binding (no GnRH). Scatchard analysis of the binding data, using linear regression analysis to establish best-line fit, was used to determine the number and binding affinity of GnRH receptors. […]

pituitary cell cultures [3] = experiment: Inhibition of GnRH-stimulated LH release from pituitary cell cultures (antagonist function); type: cell-based, rat
Method: as §1, with “FIG. 2 illustrates the ability of the gonadotropin releasing hormone antagonist to inhibit gonadotropin releasing hormone-stimulated LH release from pituitary cell cultures. Luteinizing” for “Luteinizing”, “receptor. The GnRH-antagonist binds to this receptor and blocks stimulation by GnRH.” for “receptor.”
Cell cultures were prepared, by collagenase-hyaluronidase dispersion of pituitaries from 25-day-old female weanling rats. The cultures were then incubated for 2 days at 37 C. in culture plates. […]

CC(C)C[C@H](NC(=O)[C@@H](CCCCNC(=O)CCC(=O)OCCOC(=O)CCC(=O)NCCCC[C@@H](NC(=O)[C@H](Cc1ccc(O)cc1)NC(=O)[C@H](CO)NC(=O)[C@H](Cc1c[nH]c2ccccc12)NC(=O)[C@H](Cc1c[nH]cn1)NC(=O)[C@@H]1CCC(=O)N1)C(=O)N[C@@H](CC(C)C)C(=O)N[C@@H](CCCNC(=N)N)C(=O)N1CCC[C@H]1C(=O)NCC(N)=O)NC(=O)[C@H](Cc1ccc(O)cc1)NC(=O)[C@H](CO)NC(=O)[C@H](Cc1c[nH]c2ccccc12)NC(=O)[C@H](Cc1c[nH]cn1)NC(=O)[C@@H]1CCC(=O)N1)C(=O)N[C@@H](CCCNC(=N)N)C(=O)N1CCC[C@H]1C(=O)NCC(N)=O [(D-Lys^6 -GnRH)2 -EGS dimer]
ED50 of LH release (pituitary cell cultures [1]): 0.8 nM

CCNC(=O)[C@@H]1CCCN1C(=O)[C@H](CCCNC(=N)N)NC(=O)[C@H](CC(C)C)NC(=O)[C@@H](COC(C)(C)C)NC(=O)[C@H](Cc1ccc(O)cc1)NC(=O)[C@H](CO)NC(=O)[C@H](Cc1c[nH]c2ccccc12)NC(=O)[C@H](Cc1cnc[nH]1)NC(=O)[C@@H]1CCC(=O)N1 [Buserelin]
IC50 [2]: ~0.1 nM

CC(C)C[C@H](NC(=O)[C@@H](CCCCN)NC(=O)[C@H](Cc1ccc(O)cc1)NC(=O)[C@H](CO)NC(=O)[C@H](Cc1c[nH]c2ccccc12)NC(=O)[C@H](Cc1c[nH]cn1)NC(=O)[C@@H]1CCC(=O)N1)C(=O)N[C@@H](CCCNC(=N)N)C(=O)N1CCC[C@H]1C(=O)NCC(N)=O [D-Lys^6 -GnRH, pyro glutamic acid-histidine-tryptophan-serine-tyrosine-D-lysine-leucine-arginine-proline-glycine-NH2]
stimulated LH release (pituitary cell cultures [1]; Example 7, 10^-7 M): 58±6 ng/100 ng DNA

O=C(O)CN(CCOCCOCCN(CC(=O)O)CC(=O)O)CC(=O)O [EGTA]
effect on conjugate-stimulated LH release (pituitary cell cultures [1]): blocked
effect on LH release stimulated by dimer plus antibody (pituitary cell cultures [1]): diminished LH release to near basal

O=c1[nH]c2ccccc2n1C1CCN(CCCC(c2ccc(F)cc2)c2ccc(F)cc2)CC1 [Pimozide]
effect on conjugate-stimulated LH release (pituitary cell cultures [1]): blocked
effect on LH release stimulated by dimer plus antibody (pituitary cell cultures [1]): diminished LH release to near basal

D-pyroglumatic acid-D-phenylalanyl-D-tryptophanyl-D-lysyl-GnRH [GnRH-antagonist]
binding affinity compared with natural GnRH [2]: higher affinity than natural sequence releasing hormone
binding affinity relative to natural sequence gonadotropin releasing hormone ([2]; printed as less affinity than natural GnRH, in equivalents of monomeric hormone): about 50 fold
antagonist action on GnRH-stimulated LH release (pituitary cell cultures [3]): blocks the action of both 10^-8 molar and 10^-9 molar GnRH
IC50 (pituitary cell cultures [3]; GnRH-stimulated (10^-9 molar), pituitary cultures, read-out: 50% inhibitory concentration (IC50) of GnRH-stimulated gonadotropin release): 0.2 nM

GnRH: natural sequence gonadotropin releasing hormone (QHWSYGLRPG; Gonadoliberin-1; UniProt P01148 24-33, looked up)
LH release in response to GnRH (pituitary cell cultures [1]; Example 4, 10^-7 moles GnRH, five hour period): 13.6±0.9 ng LH/20 μL of medium
concentration at which maximum LH release is reached (pituitary cell cultures [1]; FIG. 6): 10^-7 molar
